Assay results: ChEMBL document CHEMBL4229526, “Quinoxaline derivatives as potential antitrypanosomal and antileishmanial agents” (Bioorg Med Chem, 2018)

Assays:
Trypanosoma brucei = test: Antitrypanosomal activity against Trypanosoma brucei Lister 427 bloodstream forms after 48 hrs by resazurin dye based fluorescence assay; format: functional, organism-based; settings: Lister 427, 48 h
Trypanosoma cruzi [1] = test: Antitrypanosomal activity against Trypanosoma cruzi Tulahuen trypomastigote forms infected in monkey LLC-MK2 cells after 24 hrs by CellTiter-Glo luminescent cell viability assay; format: functional, organism-based; settings: LLC-MK2, 24 h
Leishmania donovani [2] = test: Antileishmanial activity against Leishmania donovani MHOM/SD/62/1S-CL2D LdBOB axenic amastigotes harboring eGFP after 72 hrs by resazurin dye based fluorescence assay; format: functional, organism-based
Trypanosoma cruzi [3] = test: Antitrypanosomal activity against Trypanosoma cruzi Tulahuen amastigote forms infected in rat H9c2 cells assessed as reduction in infected cells after 72 hrs by DRAQ5 DNA dye based confocal microscopic analysis; format: functional, organism-based; settings: H9c2, 72 h
Trypanosoma cruzi [4] = test: Antitrypanosomal activity against Trypanosoma cruzi Tulahuen amastigote forms infected in rat H9c2 cells assessed as reduction in amastigote number per cell after 72 hrs by DRAQ5 DNA dye based confocal microscopic analysis; format: functional, organism-based; settings: H9c2, 72 h
H9c2 = test: Cytotoxicity against rat H9c2 cells infected with Trypanosoma cruzi Tulahuen amastigote forms assessed as reduction in cell number after 72 hrs by DRAQ5 DNA dye based confocal microscopic analysis; settings: H9c2, 72 h
Leishmania donovani [5] = test: Antileishmanial activity against Leishmania donovani MHOM/SD/62/1S-CL2D LdBOB amastigotes harboring eGFP infected in human THP1 cells assessed as reduction in infected cells after 96 hrs by DAPI staining based microscopic analysis; format: functional, organism-based; settings: THP-1, 96 h
Leishmania donovani [6] = test: Antileishmanial activity against Leishmania donovani MHOM/SD/62/1S-CL2D LdBOB amastigotes harboring eGFP infected in human THP1 cells assessed as reduction in number of amastigotes per cell after 96 hrs by DAPI staining based microscopic analysis; format: functional, organism-based; settings: THP-1, 96 h
THP-1 = test: Cytotoxicity against human THP1 cells infected with Leishmania donovani MHOM/SD/62/1S-CL2D LdBOB amastigotes harboring eGFP assessed as reduction in cell number after 96 hrs by DAPI staining based microscopic analysis; settings: THP-1, 96 h
[7] = Cytotoxicity against human HepG2 cells after 48 hrs by CellTiter-Glo cell viability assay; format: cell-based

| SMILES | IC50 (Trypanosoma brucei) | IC50 (Trypanosoma cruzi [1]) | IC50 (Leishmania donovani [2]) | IC50 (Trypanosoma cruzi [3]) | IC50 (Trypanosoma cruzi [4]) | IC50 (H9c2) | IC50 (Leishmania donovani [5]) | IC50 (Leishmania donovani [6]) | IC50 (THP-1) | CC50 at 48 h [7] |
| --- | --- | --- | --- | --- | --- | --- | --- | --- | --- | --- |
| CCCCNc1nc2ccc(OC)cc2nc1S(C)(=O)=O | 25.1 µM | 8.86 µM | 12.6 µM | 19.9 µM | 19.9 µM | 15.8 µM | 31.6 µM | 25.1 µM | 12.6 µM | 19.9 µM |
| COc1ccc2nc(NCCO)c(S(C)(=O)=O)nc2c1 | 39.8 µM | 23.5 µM | 25.1 µM | 39.8 µM | 31.6 µM | 31.6 µM | > 50 µM | 25.1 µM | 31.6 µM | 39.8 µM |
| CCCCNc1nc2ccccc2nc1S(C)(=O)=O | 25.1 µM | 8.67 µM | 10 µM | 15.8 µM | 15.8 µM | 10 µM | 25.1 µM | 19.9 µM | 12.6 µM | 12.6 µM |
| COc1ccc2nc(NC3CCCCC3)c(S(C)(=O)=O)nc2c1 | 15.8 µM | 3.64 µM | 10 µM | 15.8 µM | 12.6 µM | 6.31 µM | 7.94 µM | 6.31 µM | 10 µM | 12.6 µM |
| CCCCNc1nc2cc(OC)ccc2nc1S(C)(=O)=O | 25.1 µM | 41.8 µM | > 50 µM | 39.8 µM | 25.1 µM | 31.6 µM | > 50 µM | > 50 µM | > 50 µM | > 100 µM |
| COc1ccc2nc(S(C)(=O)=O)c(NCCO)nc2c1 | 39.8 µM | 0.77 µM | > 50 µM | > 50 µM | > 50 µM | > 50 µM | > 50 µM | > 50 µM | > 50 µM | > 100 µM |
| COc1ccc2nc(S(C)(=O)=O)c(NC3CCCCC3)nc2c1 | 25.1 µM | 42.5 µM | > 50 µM | 19.9 µM | 15.8 µM | 19.9 µM | > 50 µM | > 50 µM | 31.6 µM | 79.4 µM |
| COc1ccc2nc(S(C)(=O)=O)c(NCC(C)C)nc2c1 | 31.6 µM | 44 µM | > 50 µM | 31.6 µM | 31.6 µM | 31.6 µM | > 50 µM | > 50 µM | > 50 µM | 79.4 µM |
| COc1ccc2nc(S(C)(=O)=O)c(NCCC(C)C)nc2c1 | 25.1 µM | > 50 µM | > 50 µM | 19.9 µM | 15.8 µM | 31.6 µM | > 50 µM | > 50 µM | 39.8 µM | 50.1 µM |
| CCCCNc1nc2cc(Br)ccc2nc1S(C)(=O)=O | 6.31 µM | 0.98 µM | 5.01 µM | 7.94 µM | 5.01 µM | 5.01 µM | 10 µM | 6.31 µM | 7.94 µM | 7.94 µM |
| COc1ccc2nc(NCC(C)C)c(S(C)(=O)=O)nc2c1 | 25.1 µM | 5.44 µM | 12.6 µM | 19.9 µM | 15.8 µM | 10 µM | 19.9 µM | 12.6 µM | 7.94 µM | 12.6 µM |
| CCCCNc1nc2cc(Cl)ccc2nc1S(C)(=O)=O | 6.31 µM | 0.96 µM | 3.16 µM | 10 µM | 7.94 µM | 5.01 µM | 7.94 µM | 7.94 µM | 5.01 µM | 6.31 µM |
| CS(=O)(=O)c1nc2ccc(Cl)cc2nc1NC1CCCCC1 | 2.51 µM | 0.4 µM | 3.98 µM | 7.94 µM | 5.01 µM | 3.98 µM | 10 µM | 12.6 µM | 6.31 µM | 5.01 µM |
| COc1ccc2nc(NC3CCCCC3)c([S+](C)[O-])nc2c1 (stereo unspecified) | 19.9 µM | 7.74 µM | 7.94 µM | 12.6 µM | 10 µM | 5.01 µM | 7.94 µM | 6.31 µM | 10 µM | 12.6 µM |
| C[S+]([O-])c1nc2ccc(Cl)cc2nc1NC1CCCCC1 (stereo unspecified) | 6.31 µM | 0.74 µM | 10 µM | 5.01 µM | 3.98 µM | 3.16 µM | 31.6 µM | 31.6 µM | 31.6 µM | 15.8 µM |
| COc1ccc2nc(-c3ccc(Cl)cc3)c(-c3ccc(S(C)(=O)=O)cc3)nc2c1 | 19.9 µM | 1.14 µM | 2.51 µM | 10 µM | 7.94 µM | 5.01 µM | 10 µM | 12.6 µM | 7.94 µM | 5.01 µM |
| COc1ccc2nc(-c3ccc(-c4ccccc4)cc3)c(-c3ccc(S(C)(=O)=O)cc3)nc2c1 | 31.6 µM | 42.4 µM | > 50 µM | 19.9 µM | 31.6 µM | 25.1 µM | > 50 µM | > 50 µM | 39.8 µM | > 100 µM |
| COc1ccc2nc(-c3ccc(S(C)(=O)=O)cc3)c(-c3ccc(Cl)cc3)nc2c1 | 10 µM | 4.21 µM | 7.94 µM | 25.1 µM | 19.9 µM | 10 µM | 19.9 µM | 19.9 µM | 12.6 µM | 25.1 µM |
| CS(=O)(=O)c1ccc(-c2nc3ccccc3nc2-c2ccc(Cl)cc2)cc1 | 10 µM | 0.7 µM | 3.16 µM | 12.6 µM | 10 µM | 5.01 µM | 10 µM | 10 µM | 10 µM | 10 µM |
| C[C@@H]1[C@H](O)[C@@H](C)/C=C/C=C/C=C/C=C/C=C/C=C/C=C/[C@H](O[C@@H]2O[C@H](C)[C@@H](O)[C@H](N)[C@@H]2O)C[C@@H]2O[C@](O)(C[C@@H](O)C[C@@H](O)[C@H](O)CC[C@@H](O)C[C@@H](O)CC(=O)O[C@H]1C)C[C@H](O)[C@H]2C(=O)O [AMPHOTERICIN B] | – | – | 1.58 µM | – | – | – | 0.63 µM | 0.63 µM | 10 µM | – |
| O=C(Cn1ccnc1[N+](=O)[O-])NCc1ccccc1 [BENZNIDAZOLE] | 3.24 µM | 23 µM | – | 5.3 µM | 1.26 µM | > 50 µM | – | – | – | – |
| NCCC[C@](N)(C(=O)O)C(F)F [EFLORNITHINE, (S)-] | 32.4 µM | – | – | – | – | – | – | – | – | – |
| CCCCCCCCCCCCCCCCOP(=O)([O-])OCC[N+](C)(C)C [MILTEFOSINE] | – | – | 7.94 µM | – | – | – | 5.01 µM | 3.98 µM | 15.8 µM | – |
| CC1CS(=O)(=O)CCN1/N=C/c1ccc([N+](=O)[O-])o1 (stereo unspecified) [NIFURTIMOX] | 7.58 µM | 2.97 µM | – | 5.9 µM | 0.4 µM | > 50 µM | – | – | – | – |
| N=C(N)c1ccc(OCCCCCOc2ccc(C(=N)N)cc2)cc1 [PENTAMIDINE] | 0.01 µM | – | – | – | – | – | – | – | – | – |
| Cc1ccc(C(=O)Nc2ccc(S(=O)(=O)O)c3cc(S(=O)(=O)O)cc(S(=O)(=O)O)c23)cc1NC(=O)c1cccc(NC(=O)Nc2cccc(C(=O)Nc3cc(C(=O)Nc4ccc(S(=O)(=O)O)c5cc(S(=O)(=O)O)cc(S(=O)(=O)O)c45)ccc3C)c2)c1 [SURAMIN] | 0.18 µM | – | – | – | – | – | – | – | – | – |
